These results are taken from PubChem BioAssay AID179 (DTP/NCI, 2004).

Each structure is given as a SMILES string. Active and inactive are the calls of the source.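 The calls were made as follows: active = compounds giving half or more protection of infected cells from virus-caused growth loss, again on retest; inactive = the rest.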 Where a SMILES comes first, the peptide text is derived from it. [ ]: non-standard residue; d: D form. The star is where a group is joined. NMeAc5c = CNC1(C(=O)O)CCCC1; Boc = CC(C)(C)OC(=O)*; OBn = c1ccc(CO*)cc1

As a reminder, the EC50 is the concentration giving half of the maximal effect. The term IC50 denotes the concentration at which inhibition is half-maximal. A lower IC50 goes with greater potency.

The subject of this assay is CEM cells HIV-1 protection, formazan growth assay. In words: NCI AIDS Antiviral Assay. The settings on record: for IC50: measured here: growth of uninfected CEM cells. In short, it runs like this:
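CEM (human) cells, HIV-1 infected vs uninfected, 5-point dosing, formazan growth read-out. Retest threshold 50% protection.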

Regarding `NC(CCCCP(=O)(O)O)C(=O)O` (stereo unspecified), the EC50 was over 200 µM and the IC50 was over 200 µM.

As to `O=C(COc1ccc(Cl)cc1)N1CCN(C(=O)COc2ccc(Cl)cc2)c2ccccc21`, the EC50 is over 11 µM and the IC50 is over 11 µM. On to `CNc1c(Cl)cc(/C=C2\C=Cc3ccccc32)cc1Cl`, for which the EC50 was over 17.4 µM and the IC50 is 12.9 µM.

Regarding `c1cc(-c2cn3ccsc3n2)ccn1`, the EC50 was over 447 µM and the IC50 was determined as 186 µM.

For `OC1[C@@H]2[C@@H](O)CCCN2C[C@@H](O)[C@H]1O` (stereo partly specified), the EC50 is over 200 µM and the IC50 is over 200 µM.

`NC(C(F)(F)F)(C(F)(F)F)P(=O)(Cc1ccccc1)Cc1ccccc1`: the EC50 was over 200 µM and the IC50 was 145 µM. For the compound `CN(C(=O)C(Cc1ccccc1)NC(=O)OC(C)(C)C)C1(C(=O)NC(Cc2ccccc2)C(=O)OCc2ccccc2)CCCC1` (stereo not drawn) (Boc-Phe-[NMeAc5c]-Phe-OBn; configuration not given here), the EC50 was over 200 µM and the IC50 turned out to be 11 µM. The matching figures for `CN(C)c1ccc(/C=C(\NC(=O)c2ccccc2)C2=NC(CCC(=O)O)C(=O)O2)cc1` (stereo unspecified): over 50.1 µM and over 50.1 µM.

Take `CC1(C)COC2(OC1)C1=NS(=O)(=O)CC13CCC2C3(C)C` (stereo unspecified): the EC50 was over 57.5 µM and the IC50 is over 57.5 µM.

With `Cc1ccccc1NC(=O)C(=O)C1CN(c2ccccc2)N=C1N` (stereo unspecified), the EC50 was over 209 µM and the IC50 is over 209 µM. With `N#CC(NCCc1ccccc1)c1ccc(C(C#N)NCCc2ccccc2)cc1` (stereo unspecified), the EC50 was over 200 µM and the IC50 stood at 10.5 µM.

Turning to `O=C1CC(c2ccc(Cl)cc2)NC(=O)N1CCCl` (stereo unspecified), the EC50 is over 200 µM and the IC50 was over 200 µM. As to `COC(=O)/C=c1\s/c(=C\C(=O)OC)c2ccccc12`, the result was inactive. For the compound `CCOC(=O)/C(C#N)=C/c1coc2cc(C)cc(C)c2c1=O`, the EC50 was over 200 µM and the IC50 was found to be 11 µM.

With `N#Cc1c(-c2ccc(Cl)cc2Cl)nc2[nH][nH]c(=S)n2c1=O`, the EC50 is over 100 µM and the IC50 is over 100 µM. In the case of `CC1CC2OC(=O)C3CCCC(=C23)[C@@]12C[C@@H](c1ccoc1)OC2=O` (stereo partly specified), the EC50 was over 550 µM and the IC50 is 269 µM.

As to `C#CCn1c(=O)c2cc(OC)c(OC)cc2n(CC#C)c1=O`, the outcome was inactive. Still for that read-out and setting: for `CC(C)/C(Cl)=N\OC(=O)Nc1ccc(F)cc1` the value was “inactive”.

With `Cc1ccc(S(=O)(=O)N2CCc3cc(O)c([N+](=O)[O-])cc32)cc1`, the EC50 is over 200 µM and the concentration for half-maximal inhibition (IC50) is over 200 µM.

Take `NC(=O)c1ncn2c1CNC(=O)C2`: the EC50 is over 200 µM and the IC50 is over 200 µM. Turning to `NC(=O)c1c([N+](=O)[O-])ncn1C1OC(CO)C(F)C1O` (stereo unspecified), the EC50 was over 200 µM and the IC50 was over 200 µM. Turning to `COC1OC(COC(=O)c2ccccc2)CC1F` (stereo unspecified), the EC50 was over 195 µM and the IC50 was determined as 21.4 µM. In the case of `O=C1CC(c2ccccc2)=Nc2ccccc2N1`, the EC50 is over 151 µM and the IC50 is over 151 µM.

With `CCN(CC)CCNCC(O)CN1CCN(C)CC1` (stereo unspecified), the EC50 was over 200 µM and the IC50 was 155 µM. The corresponding values for `CN1CC=C(OP(=O)(NCc2ccccc2)N(CCCl)CCCl)CC1` (stereo unspecified) are over 200 µM and 135 µM. `O=C(c1ccco1)C1CC(c2c(O)ccc3ccccc23)=NN1` (stereo unspecified): the EC50 was over 200 µM and the IC50 is 11.5 µM. As to `CCN(CC)C(=O)c1cccc2c(OC)ccc(OC)c12`, the outcome was inactive. As to `Cc1cc(N=Nc2ccc(Sc3ccc(N=Nc4ccc(O)c(C(=O)O)c4)cc3)cc2)c(N)c(N=Nc2ccc(N=Nc3ccc(S(=O)(=O)O)cc3)cc2)c1N`, the EC50 is 5.62 µM and the IC50 is over 100 µM.

For the compound `CC(=O)O[C@H]1CC[C@@]2(C)C(=CC[C@@H]3C2CC[C@@]2(C)C3CC[C@@H]2c2nc(-c3ccccc3)cs2)C1` (stereo partly specified), the EC50 is over 52.5 µM and the IC50 is over 52.5 µM. As to `N#CC(C(=O)CCC(=O)Nc1ccc(Cl)c(Cl)c1)c1ccc(Cl)cc1` (stereo unspecified), the EC50 is over 331 µM and the IC50 is over 331 µM. As for `Oc1c(NCn2nc(CCCCCCCCc3nn(CNc4ccc5ccccc5c4O)c(=S)o3)oc2=S)ccc2ccccc12`, the EC50 was over 200 µM and the IC50 worked out at 35.5 µM. `CC(=O)c1c(C)n(C)c2c1nnc1ccccc12`: the EC50 is over 41.7 µM and the IC50 came to 30.2 µM. In the case of `CNCc1c2c(O)c3c(O)c(C)c4c(c3c1O)C(=O)C(C)(O/C=C/C(OC)C(C)C(OC(C)=O)C(C)C(O)C(C)C(O)C(C)/C=C/C=C(/C)C(=O)N2)O4` (stereo unspecified), the EC50 is over 200 µM and the IC50 was found to be 16.6 µM. The matching figures for `O=C(O)C1Cc2[nH]c3ccccc3c2C2CCCC12` (stereo unspecified): over 708 µM and 363 µM. The matching figures for `Cc1nc2c(=O)n(-c3ccccc3)c(=O)n(-c3ccccc3)c2o1`: over 200 µM and over 200 µM. Consider `CCCCC(C)C(OC(=O)CC(CC(=O)O)C(=O)O)C(CC(C)CC(O)CCCCC(O)CC(O)C(C)N)OC(=O)CC(CC(=O)O)C(=O)O` (stereo unspecified), for which the outcome was inactive. Consider `O/N=C1/CCCCC1NO` (stereo unspecified), for which the EC50 is over 200 µM and the IC50 worked out at 117 µM. In the case of `CCCCCCCCCCCCCCCCCCC(C(=O)O)C(=O)O`, the EC50 was over 708 µM and the IC50 came to 347 µM. `O=C1/C(=C/c2cccc(Cl)c2)CCCc2ccccc21`: the EC50 is over 200 µM and the IC50 is 11.7 µM.

On to `CCC12C=CCN3CCC4(C(=C(C(=O)OC)[C@@H]1O)Nc1ccccc14)C32` (stereo partly specified), for which the EC50 is over 141 µM and the IC50 came out at 2.34 µM.

As for `Nc1ccc(/C=C/c2ccc(NCc3c(O)cc(O)cc3C(=O)O)cc2S(=O)(=O)O)c(S(=O)(=O)O)c1`, the EC50 was 107 µM and the IC50 is over 200 µM. As for `CN(C)C(=O)C(NCCO)c1ccccc1` (stereo unspecified), the EC50 was over 200 µM and the IC50 worked out at 74.1 µM. On to `CC(=O)C1=CSC2[C@H](NC(=O)Cc3ccccc3)C(=O)N2C1C(=O)OC(c1ccccc1)c1ccccc1` (stereo partly specified), for which the EC50 is over 25.7 µM and the IC50 is 15.8 µM. The corresponding values for `O=P1(Cc2ccccc2)c2ccccc2-c2ccccc21` are over 200 µM and 3.63 µM. The corresponding values for `CCN1C(=O)CS/C1=N/NC(=O)C(O)(c1ccccc1)C1C=CC=CC1` (stereo unspecified) are over 200 µM and over 200 µM.

On to `CS(=O)(=O)OCCN(CCOS(C)(=O)=O)c1ccc(C=Nc2ccc(-c3csc(COc4ccccc4)n3)cc2)cc1`, for which the EC50 was over 200 µM and the IC50 was determined as 0.457 µM. The corresponding values for `COc1cnc2cc3c4c(cccc4c2c1)NC3=O` are over 100 µM and 3.98 µM. For `C[C@]12CCC(=O)C=C1CC[C@@H]1C2CC[C@]2(C)Nc3[nH]ncc3CC12` (stereo partly specified), the result was inactive. In the case of `Cn1c2ccccc2c(=NNc2ccc(S(=O)(=O)N=C(N)N)cc2)c2ccccc21`, the EC50 is over 200 µM and the IC50 was 5.5 µM. The corresponding values for `CCn1c(C)nn2c(=O)c3ccccc3nc2c1=O` are over 100 µM and over 100 µM. The matching figures for `CC(=O)c1cccc(NC(=O)/C(=N\NC(=S)NN)C2C(=O)Nc3ccccc3S2=O)c1` (stereo unspecified): over 282 µM and over 282 µM.
